Laboratory results reported in patent US20200352931A1, “OXALAMIDES AS MODULATORS OF INDOLEAMINE 2,3-DIOXYGENASE” (PHENEX DISCOVERY VERWALTUNGS-GMBH, priority 2017, published 2020).

Target: T1, Indoleamine 2,3-Dioxygenase (IDO1) in SKOV-3 cells (Homo sapiens, UniProt P14902)
T1 construct: endogenous in cells; host or cells: SKOV-3 (ATCC HTB-77), stimulated with 50 ng/ml interferon gamma
Test: SKOV-3 cellular indoleamine 2,3-dioxygenase assay
Details: 50 ng/ml Interferon gamma, 100 μM L-Tryptophan, 24 hours, N-Formylkynurenin fluorescence, read-out: cell based activity (IC50)
Protocol: SKOV-3 Cellular Indoleamine 2,3-Dioxygenase Assay
SKOV-3 cells were obtained from the American Type Culture Collection (ATCC® HTB-77™) and maintained in McCoy's medium (Pan Biotech) supplemented with 10% fetal bovine serum and 1% Penicilin/Streptomycin. Cells were kept at 37° C. in a humidified incubator with 5% CO2. For assay preparation, cells were seeded at a density of 2*10^5/m into black clear bottom 96 well plates in 100 μl medium/well supplemented with 50 ng/ml Interferon gamma (eBioscience, Thermo Fisher Scientific). After cells fully adhered to the plate, dilution series of compounds were added in medium containing additional L-Tryptophan to a final L-Tryptophan concentration of 100 μM. The cells were incubated for 24 hours. Detection of produced N-Formylkynurenin was performed by addition of 3-Methylpiperidine to a final concentration of 200 mM. The plates were sealed and heated to 65° C. for 20 minutes in a water bath. After cooling the fluorescence of each well was recorded with a Victor™ X4 (PerkinElmer) plate reader at an emission wavelength of 535 nm and excitation at 405 nm (Tomek et al.; Anal Bioanal Chem (2013) 405:2515-2524., Tomek et al.; Biochim Biophys Acta. 2015 September; 1850(9):1772-80).

T1 sequence (P14902 whole entry): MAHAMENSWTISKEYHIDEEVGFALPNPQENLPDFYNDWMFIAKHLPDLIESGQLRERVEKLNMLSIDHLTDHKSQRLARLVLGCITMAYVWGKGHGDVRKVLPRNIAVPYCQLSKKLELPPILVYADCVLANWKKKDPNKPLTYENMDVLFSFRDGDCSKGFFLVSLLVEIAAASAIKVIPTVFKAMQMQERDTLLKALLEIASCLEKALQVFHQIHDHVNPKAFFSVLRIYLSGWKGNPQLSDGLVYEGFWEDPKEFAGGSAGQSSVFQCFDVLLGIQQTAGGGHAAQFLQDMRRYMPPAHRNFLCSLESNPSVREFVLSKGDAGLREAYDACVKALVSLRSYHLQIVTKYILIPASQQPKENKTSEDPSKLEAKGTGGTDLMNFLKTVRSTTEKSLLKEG

O=C(Nc1ccc(Cl)cn1)C(=O)N1CCC(c2ccc(C(=O)O)c3ccccc23)CC1 [Example 9, 4-(1-(2-((5-Chloropyridin-2-yl)amino)-2-oxoacetyl)piperidin-4-yl)-1-naphthoic Acid]
IC50: > 1 µM

N#Cc1ccc2c(c1)COC21CCN(C(=O)C(=O)Nc2ccc(Cl)cc2)CC1 [100/14]
IC50: 0.1 to 1 µM

O=C(N[C@@H]1CCc2ccccc21)C(=O)N1CCC(c2ccnc3ccc(F)cc23)CC1 [8/1]
IC50: > 1 µM

O=C(Nc1ccc(Cl)cn1)C(=O)N1CCC(c2ccnc3ccc(F)cc23)CC1 [Example 2, N-(5-Chloropyridin-2-yl)-2-(4-(6-fluoroquinolin-4-yl)piperidin-1-yl)-2-oxoacetamide]
IC50: < 0.1 µM

O=C(Nc1ccc(Cl)cc1F)C(=O)N1CCC(c2ccnc3ccc(F)cc23)CC1 [1/6]
IC50: < 0.1 µM

O=C(Nc1ccc(Cl)cn1)C(=O)N1CCC(c2cccc3ccccc23)CC1 [Example 6, N-(5-Chloropyridin-2-yl)-2-(4-(naphthalen-1-yl)piperidin-1-yl)-2-oxoacetamide]
IC50: 0.1 to 1 µM

O=C(N[C@H]1CCc2ccccc2C1)C(=O)N1CCC(c2ccnc3ccc(F)cc23)CC1 [Example 5, (S)-2-(4-(6-Fluoroquinolin-4-yl)piperidin-1-yl)-2-oxo-N-(1,2,3,4-tetrahydro-naphthalen-2-yl)acetamide]
IC50: 0.1 to 1 µM

NC(=O)c1ccc2nccc(C3CCN(C(=O)C(=O)Nc4ccc(Cl)cc4)CC3)c2c1 [1/43]
IC50: > 1 µM

O=C(Nc1cc(F)c(Cl)cc1F)C(=O)N1CCC(c2ccnc3ccc(F)cc23)CC1 [1/19]
IC50: < 0.1 µM

O=C(Nc1ccc(Cl)cn1)C(=O)N1CCC2(CC1)NC(=O)c1ccccc12 [100/6]
IC50: > 1 µM

CC1(C)CC(c2ccnc3ccccc23)CCN1C(=O)C(=O)Nc1ccc(Cl)cn1 (stereo not drawn) [1/11]
IC50: < 0.1 µM

O=C(Nc1ccc(-c2cnccn2)cn1)C(=O)N1CCC(c2ccnc3ccc(F)cc23)CC1 [5/4]
IC50: 0.1 to 1 µM

O=C(Nc1ccc(Cl)cc1F)C(=O)N1CCC(c2ccccc2)C1 (stereo not drawn) [1/7]
IC50: > 1 µM

O=C(NC1CCC2(CC1)CC2)C(=O)N1CCC(c2ccnc3ccc(F)cc23)CC1 [8/5]
IC50: > 1 µM

O=C(Nc1ccc(Cl)cn1)C(=O)N1CCC(c2cccc(Cl)c2Cl)CC1 [2/5]
IC50: 0.1 to 1 µM

O=C(Nc1ccc(C(F)(F)F)cn1)C(=O)N1CCC(c2ccncc2-c2ccccc2)CC1 [6/2]
IC50: > 1 µM

O=C(Nc1ccc(Cl)cn1)C(=O)N1CCC(F)(c2ccnc3ccccc23)CC1 [1/35]
IC50: 0.1 to 1 µM

C[C@H]1CC[C@H](NC(=O)C(=O)N2CCC(c3ccnc4ccccc34)CC2)CC1 [Example 4, N-((1r,4r)-4-Methylcyclohexyl)-2-oxo-2-(4-(quinolin-4-yl)piperidin-1-yl)acetamide]
IC50: 0.1 to 1 µM

CS(=O)(=O)c1ccc(NC(=O)C(=O)N2CCC(c3ccnc4ccc(F)cc34)CC2)cc1 [5/10]
IC50: > 1 µM

O=C(Nc1ccc(C(F)(F)F)cn1)C(=O)N1CCC(c2ccccc2Cc2ccccc2)CC1 [6/1]
IC50: > 1 µM

O=C(Nc1ccc(Cl)cc1)C(=O)N1CCC(c2ccnc3ccc(Cl)cc23)CC1 [1/47]
IC50: < 0.1 µM

CO[C@H]1CN(C(=O)C(=O)Nc2ccc(Cl)cc2)CC[C@@H]1c1ccnc2ccc(F)cc12 (single isomer, unassigned) [10/2b]
IC50: < 0.1 µM

N#Cc1ccc2nccc(C3CCN(C(=O)C(=O)Nc4ccc(Cl)cc4)CC3)c2c1 [1/44]
IC50: 0.1 to 1 µM

O=C(Nc1ncc(Cl)cc1F)C(=O)N1CCC(c2ccnc3ccc(F)cc23)CC1 [1/29]
IC50: < 0.1 µM

O=C(Nc1ccc(Cl)cn1)C(=O)N1CCC2(CC1)COc1ccccc12 [100/2]
IC50: 0.1 to 1 µM

O=C(Nc1ccc(Cl)cc1)C(=O)N1CCC(c2ccccc2)CC1 [1/1]
IC50: < 0.1 µM

O=C(Nc1ccc(Cl)cc1)C(=O)N1CCC(c2ccnc3cc(Cl)ccc23)CC1 [1/48]
IC50: < 0.1 µM

O=C(Nc1ccc(Cl)cc1)C(=O)N1CCC2(CC1)OCc1cc(C(F)(F)F)ccc12 [100/12]
IC50: < 0.1 µM

O=C(Nc1ccc(Cl)cc1F)C(=O)N1CCC(c2ccnc3ccccc23)CC1 [1/2]
IC50: < 0.1 µM

O=C(Nc1ccc(C(F)(F)F)cn1)C(=O)N1CCC(c2ccnc3ccc(F)cc23)CC1 [5/2]
IC50: 0.1 to 1 µM

O=C(Nc1ccc(Cl)c(F)c1)C(=O)N1CCC(c2ccnc3ccc(F)cc23)CC1 [1/18]
IC50: < 0.1 µM

CN(C(=O)C(=O)N1CCC(c2ccnc3ccc(F)cc23)CC1)c1ccc(Cl)cn1 [2/3]
IC50: > 1 µM

O=C(Nc1ccc(Cl)cn1)C(=O)N1CCC(c2ccnc3ccccc23)CC1 [Example 3, N-(5-Chloropyridin-2-yl)-2-oxo-2-(4-(quinolin-4-yl)piperidin-1-yl)acetamide]
IC50: < 0.1 µM

O=C(Nc1csc(Cl)c1)C(=O)N1CCC(c2ccnc3ccc(F)cc23)CC1 [7/2]
IC50: < 0.1 µM

O=C(NCc1ccc(Cl)o1)C(=O)N1CCC(c2ccnc3ccc(F)cc23)CC1 [2/2]
IC50: > 1 µM

O=C(Nc1ccc(F)cc1)C(=O)N1CCC(c2ccnc3ccc(F)cc23)CC1 [1/28]
IC50: < 0.1 µM

O=C(Nc1ccc(Cl)cn1)C(=O)N1CCC2(CCc3ccccc32)CC1 [Example 100]
IC50: < 0.1 µM

O=C(Nc1ccc(C(F)(F)F)cc1)C(=O)N1CCC(c2ccnc3ccc(F)cc23)CC1 [7/1]
IC50: < 0.1 µM

Cc1nc(NC(=O)C(=O)N2CCC(c3ccnc4ccc(F)cc34)CC2)ccc1Cl [5/3]
IC50: 0.1 to 1 µM

O=C(Nc1ccc(C(F)F)cc1)C(=O)N1CCC(c2ccnc3ccc(F)cc23)CC1 [1/22]
IC50: < 0.1 µM

O=C(Nc1ccc(Br)cc1F)C(=O)N1CCC(c2ccnc3ccc(F)cc23)CC1 [1/26]
IC50: < 0.1 µM

O=C(Nc1ccc(Cl)cn1)C(=O)N1CCC2(CC1)OCc1ccncc12 [100/5]
IC50: > 1 µM

O=C(Nc1ccc(Br)cc1)C(=O)N1CCC(c2ccnc3ccc(F)cc23)CC1 [1/27]
IC50: < 0.1 µM

O=C(Nc1ccc(Cl)cn1)C(=O)N1CCC(O)(c2ccnc3ccccc23)CC1 [1/9]
IC50: > 1 µM

O=C(Nc1ccc(Cl)cn1)C(=O)N1CCC(c2cc(OC(F)F)nc3ccccc23)CC1 [1/33]
IC50: > 1 µM

NS(=O)(=O)c1ccc(NC(=O)C(=O)N2CCC(c3ccnc4ccc(F)cc34)CC2)cc1 [5/8]
IC50: > 1 µM

O=C(Nc1ccc(CCCl)cc1)C(=O)N1CCC(c2ccnc3ccc(F)cc23)CC1 [Example 7, N-(4-(2-Chloroethyl)phenyl)-2-(4-(6-fluoroquinolin-4-yl)piperidin-1-yl)-2-oxoacetamide]
IC50: < 0.1 µM

O=C(Nc1cccc(C(F)(F)F)c1)C(=O)N1CCC(c2ccnc3ccc(F)cc23)CC1 [1/15]
IC50: 0.1 to 1 µM

O=C(Nc1ccc(Cl)cn1)C(=O)N1CCC2(CC1)OCc1ccc(Cl)cc12 [100/15]
IC50: > 1 µM

O=C(Nc1ccc(C(F)(F)F)cc1F)C(=O)N1CCC(c2ccnc3ccc(F)cc23)CC1 [1/17]
IC50: < 0.1 µM

N#Cc1ccc(NC(=O)C(=O)N2CCC(c3ccnc4ccc(F)cc34)CC2)cc1 [1/14]
IC50: < 0.1 µM

O=C(Nc1ccc(OCC(F)(F)F)cc1)C(=O)N1CCC(c2ccnc3ccc(F)cc23)CC1 [1/41]
IC50: 0.1 to 1 µM

O=C(NC1CCC(F)(F)CC1)C(=O)N1CCC(c2ccnc3ccc(F)cc23)CC1 [8/3]
IC50: > 1 µM

O=C(Nc1ccc(CC(F)(F)F)cc1)C(=O)N1CCC(c2ccnc3ccc(F)cc23)CC1 [1/36]
IC50: 0.1 to 1 µM
